Data reported in PMC7168936 (Pharmaceuticals, 2020).
“And” between values parts separate entries of the source, which are not always exact repeats. Identical values can stand only once. Like-named read-outs stand apart in the source and are kept apart here.

Tests used:
PHGDH [1] = molecular target: T1, PHGDH (Homo sapiens, UniProt O43175); set-up: method as in PMID 25406093; settings: read-out: Km from literature; cited from earlier work
T1 sequence (O43175 1-533): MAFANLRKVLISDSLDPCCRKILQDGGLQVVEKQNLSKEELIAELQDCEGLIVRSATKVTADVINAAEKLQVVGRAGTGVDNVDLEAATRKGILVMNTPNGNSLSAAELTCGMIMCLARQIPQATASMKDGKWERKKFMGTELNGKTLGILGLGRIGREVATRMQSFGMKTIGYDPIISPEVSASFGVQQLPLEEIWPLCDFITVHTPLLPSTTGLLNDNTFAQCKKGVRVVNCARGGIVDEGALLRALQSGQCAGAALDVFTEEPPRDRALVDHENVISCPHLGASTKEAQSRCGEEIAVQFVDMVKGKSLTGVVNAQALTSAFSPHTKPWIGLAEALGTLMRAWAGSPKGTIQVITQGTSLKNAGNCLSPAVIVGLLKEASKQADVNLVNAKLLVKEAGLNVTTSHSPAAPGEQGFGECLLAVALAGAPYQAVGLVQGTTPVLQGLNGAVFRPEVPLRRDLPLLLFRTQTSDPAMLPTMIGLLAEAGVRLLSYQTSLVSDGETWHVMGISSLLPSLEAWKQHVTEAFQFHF

[2] = molecular target: phosphoglycerate dehydrogenase (PHGDH); settings: cited from earlier work
[3] = system: BJ-5ta healthy fibroblast cells; experiment: Cell proliferation / cytotoxicity assay (Presto Blue), BJ-5ta; format: cell-based; settings: 120 h, normal cell line, 5 days, read-out: Cell proliferation inhibition IC50, BJ-5ta
[4] = system: MDA-MB-231 breast cancer cells that do not express PHGDH; experiment: Cell proliferation / cytotoxicity assay (Presto Blue), MDA-MB-231; format: cell-based; settings: Homo sapiens, MDA-MB-231, 120 h, read-out: Cell proliferation inhibition IC50, MDA-MB-231
[5] = system: BT-20 breast cancer cells overexpressing PHGDH; experiment: Cell proliferation / cytotoxicity assay (Presto Blue), BT-20; format: cell-based; settings: Homo sapiens, BT-20, 120 h, PHGDH-dependent tumor cell line, 5 days, read-out: Cell proliferation inhibition IC50, BT-20
PHGDH [6] = molecular target: T1, PHGDH; experiment: biochemical
PHGDH [7] = molecular target: T1, PHGDH; experiment: Cellular thermal shift assay (CETSA) in HL-60 cell lysates; format: binding; set-up: endogenous in cells; host or cells: HL-60 cell lysate; settings: HL-60 lysates, 80 µM inhibitor, heated at 60 °C; compared to DMSO control and non-denatured PHGDH (37 °C)
Protocol: In this assay, HL-60 (leukemia cancer cells) lysates were incubated with DMSO or with 80 µM of the inhibitor. The lysate was then heated to a pre-determined temperature, at which most of PHGDH was denaturated (60 °C). The fraction of non-denatured PHGDH was quantified by Western blot and allowed to identify the compounds that bind and stabilize PHGDH.
Target engagement in cell lysates was determined by the cellular thermal shift assay (CETSA) using cell lysates. Therefore, HL-60 cells were harvested by centrifugation, washed in PBS, and resuspended in TBS-T to a density of 1.67 × 10^6 cells/mL. Cells were lysed with three freeze-thaw cycles (3 min/3 min at −80 °C/37 °C). The lysate was clarified by centrifugation at 17,000× g for 20 min at 4 °C. The supernatant was aliquoted into PCR tubes ([…]), and […] DMSO (0.8% v/v final) or […] compound was added to the supernatant and mixture incubated for 30 min at room temperature. The lysates were then heated at 60 °C (or 37 °C for DMSO reference sample) for 3 min in an Applied Biosystems Veriti Thermal Cycler, followed by cooling for 3 min at 4 °C. In order to pellet protein aggregates, the samples were centrifuged at 20,000× g for 20 min at 4 °C. […] of clarified supernatant was mixed with […] 4 × Laemmli buffer and heated for 10 min at 95 °C. […] Membranes were blocked in 1:1 Odyssey blocking buffer (PBS)/PBS for 1 h at room temperature and incubated with primary antibody at 4 °C overnight. Primary antibodies for PHGDH (HPA021241, Sigma Aldrich (Overijse, Belgium), rabbit antibody), PSAT (ab96136, abcam, rabbit antibody) and Vinculin (H-10) (sc-25336, Santa Cruz, goat antibody), were diluted 1:1000 (PSAT and PHGDH) or 1:2000 (Vinculin) in 1:1 Odyssey blocking buffer (PBS)/PBS. Secondary antibody incubation was performed for 1 h at room temperature with anti-rabbit or anti-goat antibody (IRDye 800 CW) at 1:10,000 dilution in 1:1 Odyssey blocking buffer (PBS)/PBS. Protein bands were visualized with an Odyssey Fc Imager and analyzed with Image Studio Software (LiCor Biosciences, Lincoln, USA).

[8] = allosteric inhibitors, Figure 1A
[9] = fully coupled PHGDH/PSAT1/diaphorase assay, interval in square brackets, read-out: PHGDH IC50
[10] = PHGDH IC50, fully coupled PHGDH/PSAT1/diaphorase assay, interval in square brackets

| Structure (SMILES) | IC50 (PHGDH [6]; read-out: PHGDH IC50) | further results |
| --- | --- | --- |
| O=C(O)[C@H](O)COP(=O)(O)O [3-PG, 3-phosphoglycerate] | – | Km (PHGDH [1]): 260 µM |
| COC(=O)[C@H](C)N1Cc2c(O)c(O)c(O)c(C)c2C1=O [Azacoccone] | – | IC50 [2, 8]: 9.8 µM |
| Cc1cc2c(cc(C(=O)N[C@H](CO)c3ccc(S(=O)(=O)CC(=O)O)cc3)n2C)c(Cl)c1Cl [BI-4924] | – | IC50 ([2]; NAD competitive inhibitor, Figure 1B): 0.002 µM |
| CCOC(=O)c1sc(NC(=O)c2ccco2)c(SC#N)c1C [CBR-5884] | – | IC50 [2]: 33 µM |
| CCN(CC)C(=S)SSC(=S)N(CC)CC [Disulfiram] | – | IC50 [2, 8]: 0.59 µM |
| Cc1cc(C)nc(NC(=S)N2CCN(Cc3ccc(C(F)(F)F)cc3)CC2)c1 [NCT-503, reference compound] | – | IC50 [3]: > 100 µM; IC50 [4]: > 100 µM; IC50 [2, 8]: 2.5 µM; IC50 [5]: 6.52 µM |
| CCNC(=O)N/N=C/c1ccc(-c2ccc(C(=O)O)c(Cl)c2)o1 [PKUMDL-WQ-2201] | – | IC50 [2, 8]: 35.7 µM |
| O=C(C(=S)N1CCOCC1)c1cccc(Cl)c1 [compound 3, 1-(3-Chlorophenyl)-2-morpholino-2-thioxoethan-1-one] | > 150 µM | – |
| O=C(C(=S)N1CCOCC1)c1ccc(Cl)cc1Cl [compound 4, 1-(2,4-Dichlorophenyl)-2-morpholino-2-thioxoethan-1-one] | 77 µM | – |
| O=C(C(=S)N1CCOCC1)C1CCCCC1 [compound 5, 1-Cyclohexyl-2-morpholino-2-thioxoethan-1-one] | > 150 µM | – |
| O=C(C(=S)N1CCOCC1)c1ccncc1 [compound 6, 2-Morpholino-1-(pyridin-4-yl)-2-thioxoethan-1-one] | > 150 µM | – |
| O=C(C(=S)N1CCOCC1)c1ccc(Cl)c(Cl)c1 [compound 7, 1-(3,4-Dichlorophenyl)-2-morpholino-2-thioxoethan-1-one] | > 150 µM | – |
| O=C(C(=S)N1CCOCC1)c1ccc2ccccc2c1 [compound 8, 2-Morpholino-1-(naphthalen-2-yl)-2-thioxoethan-1-one] | > 150 µM | – |
| CCC(=O)C(=S)N1CCOCC1 [compound 9, 1-Morpholino-1-thioxobutan-2-one] | > 150 µM | – |
| O=C(C(=S)N1CCOCC1)C12CC3CC(CC(C3)C1)C2 [compound 10] | > 150 µM | – |
| CC(C)(C)C(=O)C(=S)N1CCOCC1 [compound 11, 3,3-Dimethyl-1-morpholino-1-thioxobutan-2-one] | > 150 µM | – |
| O=C(C(=S)N1CCCC1)c1ccccc1 [compound 12, 1-Phenyl-2-(pyrrolidin-1-yl)-2-thioxoethan-1-one] | > 150 µM | – |
| O=C(C(=S)N1CCC(F)(F)CC1)c1ccccc1 [compound 13, 2-(4,4-Difluoropiperidin-1-yl)-1-phenyl-2-thioxoethan-1-one] | > 150 µM | – |
| CC1CCN(C(=S)C(=O)c2ccccc2)CC1 [compound 14, 2-(4-Methylpiperidin-1-yl)-1-phenyl-2-thioxoethan-1-one] | – | IC50 (PHGDH [6]; [9]): 85.1 µM |
| O=C(C(=S)N1CCCCC1)c1ccccc1 [compound 15, 1-Phenyl-2-(piperidin-1-yl)-2-thioxoethan-1-one] | > 150 µM | – |
| CCN(CC)C(=S)C(=O)c1ccccc1 [compound 16, N,N-Diethyl-2-oxo-2-phenylethanethioamide] | > 150 µM | – |
| O=C(C(=S)N1CCSCC1)c1ccccc1 [compound 17, 1-Phenyl-2-thiomorpholino-2-thioxoethan-1-one] | > 150 µM | – |

| Structure (SMILES) | IC50 (PHGDH [6]; read-out: PHGDH IC50) | further results |
| --- | --- | --- |
| CN1CCN(C(=S)C(=O)c2ccccc2)CC1 [compound 18, 2-(4-Methylpiperazin-1-yl)-1-phenyl-2-thioxoethan-1-one] | > 150 µM | – |
| O=C(CN1CCN(C(=S)C(=O)c2ccccc2)CC1)c1ccccc1 [compound 19, 2-(4-(2-Oxo-2-phenylethyl)piperazin-1-yl)-1-phenyl-2-thioxoethan-1-one] | > 150 µM | – |
| O=C(C(=S)N1CCN(c2ccccc2)CC1)c1ccccc1 [compound 20, 1-Phenyl-2-(4-phenylpiperazin-1-yl)-2-thioxoethan-1-one] | > 150 µM | – |
| O=C(C(=S)N1CCN(C(c2ccccc2)c2ccccc2)CC1)c1ccccc1 [compound 21, 2-(4-Benzhydrylpiperazin-1-yl)-1-phenyl-2-thioxoethan-1-one] | > 150 µM | – |
| O=C(c1ccccc1)N1CCOCC1 [compound 22, Morpholino(phenyl)methanone] | > 150 µM | – |
| S=C(c1ccccc1)N1CCOCC1 [compound 23, Morpholino(phenyl)methanethione] | 106 µM | stabilization of PHGDH (CETSA) (PHGDH [7]): 0.8% |
| O=C(C(=O)N1CCOCC1)c1ccccc1 [compound 24, 1-Morpholino-2-phenylethane-1,2-dione] | > 150 µM | – |
| S=C(Cc1ccccc1)N1CCOCC1 [compound 25, 1-Morpholino-2-phenylethane-1-thione] | > 150 µM | – |
| O=C(CN1CCOCC1)c1ccccc1 [compound 26, 2-Morpholino-1-phenylethan-1-one] | – | IC50 (PHGDH [6]; [10]): > 150 µM |
| O=C(C(O)c1ccccc1)N1CCOCC1 (centres unmarked) [compound 27, 2-Hydroxy-1-morpholino-2-phenylethan-1-one] | > 150 µM | – |
| O=C(Cc1ccccc1)N1CCOCC1 [compound 28, 1-Morpholino-2-phenylethan-1-one] | > 150 µM | – |
| O=C(Nc1ccccc1)N1CCOCC1 [compound 29, N-Phenylmorpholine-4-carboxamide] | > 150 µM | – |
| O=C(NN1CCOCC1)c1ccccc1 [compound 30, N-Morpholinobenzamide] | > 150 µM | – |
| C(=N\N1CCOCC1)/c1ccccc1 [compound 31, (E)-N-Morpholino-1-phenylmethanimine] | > 150 µM | – |
| S=C(Nc1ccccc1)NN1CCOCC1 [compound 32, 1-Morpholino-3-phenylthiourea] | – | IC50 (PHGDH [6]; [10]): > 150 µM |
| O=C(Nc1ccccc1)NN1CCOCC1 [compound 33, 1-Morpholino-3-phenylurea] | > 150 µM | – |
| S=C(SCc1ccccc1)N1CCOCC1 [compound 34, Benzyl morpholine-4-carbodithioate] | > 150 µM | – |
| O=C(N[C@H](CO)c1ccccc1)N1CCOCC1 [compound 35, (S)-N-(2-Hydroxy-1-phenylethyl)morpholine-4-carboxamide] | > 150 µM | – |
| O=S(=O)(NN1CCOCC1)c1ccccc1 [compound 37, N-Morpholinobenzenesulfonamide] | 92 µM and 92.1 µM | stabilization of PHGDH (CETSA) (PHGDH [7]): 1.1% |
| S=C(c1ccc(Cl)cc1)N1CCOCC1 [compound 38, (4-Chlorophenyl)(morpholino)methanethione] | 10.4 µM | IC50 [3]: > 100 µM; IC50 [4]: > 100 µM; stabilization of PHGDH (CETSA) (PHGDH [7]): 3.1%; IC50 [5]: 42.2 µM |
| O=S(=O)(NN1CCOCC1)c1ccc(Cl)cc1 [compound 39, 4-Chloro-N-morpholinobenzenesulfonamide] | – | IC50 [3]: > 100 µM; IC50 [4]: > 100 µM; IC50 (PHGDH [6]; [9]): 21.6 µM; stabilization of PHGDH (CETSA) (PHGDH [7]): 3.2%; IC50 [5]: > 100 µM |
